Our source for the chromatographic logP and log p values is US8981111B2 (priority 2008, dated 2015).

The first series is described as follows: log P (HPLC/MS data of the preparation examples). Conditions: HCOOH (formic acid).
The compound `Cn1c(C(=NOCc2nccc(N(C(=O)C3CC3)C(=O)C3CC3)n2)c2ccccc2)cnc1C(=O)C1CC1` [Example 312, N-(cyclopropylcarbonyl)-N-(2-{[({[2-(cyclopropylcarbonyl)-1-methyl-1H-imidazol-5-yl](phenyl)methylene}amino)oxy]methyl}pyrimidin-4-yl)cyclopropanecarboxamide] showed a chromatographic logP of 3.73.

The same series, now with this note: LC-MS, method [b]: pH 2.7 with 0.1% formic acid in water and acetonitrile, linear gradient 10% to 95% acetonitrile.
As for `CCCC(C)C(=O)Nc1cccc(CON=C(c2cccc(F)c2)c2nccn2C)n1` (stereo not drawn) [Example 289], the log p was 2.77^[b]. On the same count and under the same terms, under `Cn1ccnc1C(=NOCc1cccc(NC(=O)Cc2cccs2)n1)c1cccc(F)c1` [Example 290] stands 2.44^[b]. As for `Cn1ccnc1C(=NOCc1cccc(NC(=O)Cc2ccccc2Cl)n1)c1cccc(F)c1` [Example 291], the log p was 2.8^[b]. Same read-out and setting: under `Cc1cc(C(F)(F)F)nn1CC(=O)Nc1cccc(CON=C(c2cccc(F)c2)c2nccn2C)n1` [Example 292] stands 2.8^[b]. Regarding `Cn1ccnc1C(=NOCc1cccc(NC(=O)COc2ccccc2)n1)c1cccc(F)c1` [Example 293], the log p is 2.63^[b].

On to `Cn1ncnc1C(=NOCc1cccc(NC(=O)Cc2ccc(F)cc2)n1)c1ccccc1` [Example 294], for which the log p is 3.15^[b].

In the case of `Cn1ncnc1C(=NOCc1cccc(NC(=O)CCc2ccc(Cl)s2)n1)c1ccccc1` [Example 295], the log p was 3.74^[b]. Same read-out and setting: under `Cn1ncnc1C(=NOCc1cccc(NC(=O)CCc2cc(Cl)cc(Cl)c2)n1)c1ccccc1` [Example 296] stands 4.29^[b]. Still for that read-out and setting: the value for `COc1ccc(CCC(=O)Nc2cccc(CON=C(c3ccccc3)c3ncnn3C)n2)cc1` [Example 297] was 3.25^[b]; that for `COc1cccc(CCC(=O)Nc2cccc(CON=C(c3ccccc3)c3ncnn3C)n2)c1` [Example 298] was 3.25^[b]; that for `COc1ccccc1CCC(=O)Nc1cccc(CON=C(c2ccccc2)c2ncnn2C)n1` [Example 299] was 3.44^[b]. The same measure, in the same setting: under `Cn1ncnc1C(=NOCc1cccc(NC(=O)CCc2ccc(Cl)cc2)n1)c1ccccc1` [Example 300] stands 3.72^[b]; under `Cn1ncnc1C(=NOCc1cccc(NC(=O)CCc2ccccc2Cl)n1)c1ccccc1` [Example 301], 3.72^[b]; under `Cn1ncnc1C(=NOCc1cccc(NC(=O)CCc2ccc(C(F)(F)F)cc2)n1)c1ccccc1` [Example 302], 3.9^[b]. Take `Cn1ncnc1C(=NOCc1cccc(NC(=O)CCc2ccccc2C(F)(F)F)n1)c1ccccc1` [Example 303]: the log p is 3.87^[b]. `Cn1ncnc1C(=NOCc1cccc(NC(=O)C2CC2c2ccccc2)n1)c1ccccc1` (stereo not drawn) [Example 304]: the log p was 3.61^[b].

On to `C=CCCOC(=O)Nc1cccc(CON=C(c2ccccc2)c2ncnn2C)n1` [Example 305], for which the log p is 3.21^[b].

For the compound `CC(C)CCC(=O)Nc1cccc(CON=C(c2ccccc2)c2ncnn2C)n1` [Example 306], the log p is 3.37^[b]. Regarding `CCC(C)CC(=O)Nc1cccc(CON=C(c2ccccc2)c2ncnn2C)n1` (stereo not drawn) [Example 307], the log p was 3.31^[b]. Same read-out and setting: under `Cn1ncnc1C(=NOCc1cccc(NC(=O)CCCCCl)n1)c1ccccc1` [Example 308] stands 2.98^[b]. As for `C#CCCCC(=O)Nc1cccc(CON=C(c2ccccc2)c2ncnn2C)n1` [Example 309], the log p was 2.7^[b]. Still for that read-out and setting: the value for `C=CCCC(=O)Nc1cccc(CON=C(c2ccccc2)c2ncnn2C)n1` [Example 310] was 2.77^[b]; that for `Cn1ncnc1C(=NOCc1cccc(NC(=O)Cc2cccs2)n1)c1ccccc1` [Example 311] was 2.98^[b]; that for `Cn1ncnc1C(=NOCc1cccc(NC(=O)Cc2cccc(Cl)c2)n1)c1ccccc1` [Example 313] was 3.5^[b]. Same read-out and setting: under `C=CCC(=O)Nc1cccc(CON=C(c2ccccc2)c2ncnn2C)n1` [Example 314] stands 2.51^[b].

With `CC(C)COC(=O)Nc1cccc(CON=C(c2ccccc2)c2ncnn2C)n1` [Example 316], the log p was 3.52^[b].
